These results are taken from patent publication US4929739A, “Complexes of tellurium and selenium derivatives” (Bar-Ilan University, priority 1988, dated 1990).

One data set concerns West Nile virus. Nature of the data set: West Nile virus infections in mice. Type of data set: in vivo. The following applies: 10 μg/day/mouse. As for the experimental part:
(§1) Preliminary toxicity studies in mice have established an LD50 of 300 μg./25 g of body weight in 6 week old mice for the compound of Example 1. The compounds may be used as anti-bacterial or anti-viral agents in plants or in animals. Virus infections such as West Nile virus infections in mice are susceptible to the compound of the Example 1 at a dose of 10 μg/day/mouse. Plant bacterial infections such as crown gall caused by Agrobacterium tumefaciens may be treated or prevented by the application of a 0.1% solution of compounds of the invention.

Data set [1] can be described thus: preliminary toxicity studies in mice. The following applies: 6 week old mice. It counts as in vivo. On the procedure:
as §1

For another data set, the system named is IL-2 producer cells. The data set can be described thus: proliferation of IL-2 producer cells. It counts as cell-based.
Data set [2] has as its system producer T-cell lymphocytes. Nature of the data set: lymphokine production in producer T-cell lymphocytes in vivo. The following applies: alone.
The test system of data set [3] is producer T-cell lymphocytes. The data set can be described thus: lymphokine production in producer T-cell lymphocytes in vitro. Type of data set: cell-based. The note with it: alone.
Data set [4] is described as follows: solubilization in aqueous buffer. Type of data set: physicochemical. An excerpt: The complexes of the invention may be formed by contacting a compound of Formulas A-E with a non-toxic pharmaceutically acceptable complexing agent which forms a water soluble complex with said tellurium or selenium compound. Suitable complexing agents include hydroxy polycarboxylic acids, polycarboxylic acids or polyhydroxy polycarboxylic acids. Generally, it is preferred to prepare the complexes of the invention by contacting a compound of Formulas A-E with a buffer system containing either citric acid or tartaric acid and a corresponding alkali metal salt thereof, such as sodium or potassium.
Generally equimolar amounts of acids and the corresponding alkali metal salts may be combined in aqueous solutions with a compound of Formulas A-E to form the complex of the invention; 0.05M-0.5M concentration of the buffer are preferred but higher or lower amounts may be utilized provided that the concentration is adequate to dissolve the particular compound of Formulas A-E. Higher molarities may be used to provide concentrates that may be diluted prior to IV administration or to prepare other dosage forms. The amount of the compound of Formulas A-E is dependent on the ultimate use of the product. […] This is in contrast to the phosphate buffer (PBS) from which only about 200 mcg/ml of ammonium trichloro (dioxoethylene-0,0') tellurate can be solubilized. […]

The test system of the next data set is IL-2. Nature of the data set: mouse spleen assay, IL-2 activity of supernatants (tritiated thymidine). It counts as cell-based, mouse (male Balb-c). The note with it: for IL-2 activity, 12.5% supernatant / IL-2 activity, 25% supernatant: Table 1, PMA, 96 h; for IL-2 production, supernatant 12.5% / IL-2 production, supernatant 25%: Table 2; for IL-2 activity, 12.5% supernatant / IL-2 production, supernatant 12.5%: 12.5% supernatant; for IL-2 activity, 25% supernatant / IL-2 production, supernatant 25%: 25% supernatant. As for the experimental part:
Two citrate buffer solutions are prepared by combining aqueous 0.05M sodium citrate with 0.05M citric acid or 0.1M sodium citrate and 0.1M citric acid. […] To these solutions are added up to 5 mg/ml of ammomium trichloro (dioxoethylene-0,0') tellurate.
After storage at various temperatures for about two and a half months, dilutions of these solutions were prepared and a mouse spleen assay was performed as follows:
Spleens were removed from male Balb-c mice 6 to 8 weeks of age. The spleen cells were pushed through stainless steel 60 mesh (U.S. standard) nets resting in […] Petri dishes containing PBS in order to separate the cells. The cells were then collected into centrifuge tubes and spun at 1000 rpm for 10 minutes. The supernatant was discarded and cells were treated with 5 ml of hypotonic buffer (0.15 MNH4 Cl; 0.01M KHCO3 dissolved in double distilled water, pH 7.2) for exactly two minutes. Thereafter, PBS* was added to the cells amd the test tubes were centrifuged for 10 minutes at 1000 rpm. The cells were rinsed twice and counted in a heamocytometer using trypan blue to test for viability. The cells were brought to a concentration of 10^7 viable cells/ml. […] Thereafter, the cells were incubated at 37° C., 7.5% CO2 for 96 h. Supernatants were collected and assayed for IL-2 activity using tritiated thymidine (^3 H-TdR).
A 0.04M tartrate buffer in also prepared using the same procedures. The complex is formed by adding ammonium trichloro (dioxoethylene-0,0'-) tellurate to the aqueous tartrate buffer. The effectiveness of the complex in stimulating IL-2 production was determined in the mouse spleen assay.

The next data set has as its system human mononuclear cells. Nature of the data set: stimulation of human mononuclear cells, proliferation (3H-methylthymidine). Type of data set: cell-based. Details: unit not given here. The following applies: Table 3. On the procedure:
Citrate and tartrate complexes of ammonium trichloro (dioxoethylene-0,0') tellurate are tested for the stimulation of human mononuclear cells.
Venous whole blood (with heparin; Evans 10 IU/ml blood) is diluted with RPMI in a ratio of 1:1. […] Each tube is provided with 3 ml Lymphoprep and 6 to 7 ml diluted blood. The tubes are centrifuged 30 minutes at 1600 rpm at room temperature. After the centrifugation mononuclear cells are collected from the interphase fraction and washed with RPMI three times. The cells are resuspended in RPMI, counted on a hemocytometer, using trypan blue to test for viability and then are brought to a concentration of […] in enriched RPMI. The concentrations set forth in Table 3 were added in a volume of 10% of cell mixture. Aliquots of 0.2 ml from each sample were placed in wells of microplates (NUNC) (triplicates). The microplates are incubated for 72 hours at 37° C. after which ^ 3 H-methylthymidine, 1U Ci/well (Nuclear Research Center, Israel) are added to the cultures. Cells were further incubated overnight and harvested with a cell harvester.

Read-outs that look alike come from different tables or passages of the source.

For the compound `Cl[Te]1(Cl)(Cl)OCCO1.N` [Example 1, ammomium trichloro (dioxoethylene-0,0') tellurate], the “susceptibility of West Nile virus infections” value in the data set on West Nile virus is “susceptible”. In data set [1], the LD50 was 300 μg./25 g of body weight.
For `O=[Te]=O` [TeO2], the “proliferation in producing cells such as IL-2 producer cells” value with IL-2 producer cells was “will not cause proliferation”. Also, the “induction of lymphokine production in vivo” value in data set [2] was “will induce lymphokine production”. In data set [3], the “induction of lymphokine production in vitro” value was “will induce lymphokine production”.
As for `Cl[TeH]1(Cl)(Cl)OCCO1` [ammonium trichloro (dioxoethylene-0,0') tellurate], the solubility was at least 5 mg/mL in data set [4] (citrate buffer, aqueous buffer, read-out: concentration solubilized in citrate) and about 0.2 mg/mL in data set [4] (phosphate buffer (pbs), read-out: concentration solubilized in phosphate buffer). The “IL-2 activity, 12.5% supernatant” value is 1865 cpm in the data set with IL-2 (0.05 μg/ml), 28035 cpm with IL-2 (0.1 μg/ml) and 35270 cpm with IL-2 (0.5 μg/ml). Besides, the “IL-2 activity, 25% supernatant” value in the data set on IL-2 (0.05 μg/ml) is on record as 3762 cpm; with IL-2 (0.1 μg/ml), 44378 cpm; in the data set on IL-2 (0.5 μg/ml ammonium trichloro(dioxoethylene) tellurate) it was 43833 cpm. Moreover, the “IL-2 production, supernatant 12.5%” value in the data set with IL-2 (0.05 μg/ml) is 1865 cpm; in the data set with IL-2 (0.1 μg/ml) it was 28035 cpm; in the data set on IL-2 (0.5 μg/ml), 35270 cpm. Besides, the “IL-2 production, supernatant 25%” value turned out to be 44378 cpm with IL-2 (0.1 μg/ml), 43833 cpm in the data set on IL-2 (0.5 μg/ml) and 3762 cpm in the data set with IL-2. Moreover, the “proliferation of mononuclear cells” value with human mononuclear cells (0.05 μg/ml, PMA 0.5 ng/ml cells) amounted to 6663; with human mononuclear cells (0.05 μg/ml, PMA 1.5 ng/ml cells), 12923; in the data set with human mononuclear cells (0.1 μg/ml, PMA 0.5 ng/ml cells), 19810; with human mononuclear cells (0.1 μg/ml, PMA 1.5 ng/ml cells) it was 42857; in the data set on human mononuclear cells (0.5 μg/ml, PMA 0.5 ng/ml cells), 2945; with human mononuclear cells (0.5 μg/ml, PMA 1.5 ng/ml cells), 3287.
